Results as given in patent US20260085036A1 (MiHKAL GmbH, priority 2022, published 2026).

How the values were obtained:
[1] = Stability study in 1% HCl (representative of gastric acid); type: physicochemical; settings: 37° C., approximately 21 hours, LC-MS
Experimental: (§1) Three novel compounds i.e., tert-butyl (2,5-dimethoxy-4-methylphenethyl)carbamate (Preparative Example 18), tert-butyl (2,5-dimethoxyphenethyl)carbamate (Preparative Example 7), and N-(3,4,5-Trimethoxyphenethyl-2-hydroxy-acetophenon imine (Preparative Example 17) were tested for their stability in 1% hydrochloric acid (HCl) as well as in phosphate buffers at pH 7.4 and pH 8.0. These conditions were selected to provide insights into the chemical stability of compounds at a pH values similar to conditions within the human body. The diluted hydrochloric acid (pH 1) represents gastric acid within the stomach whereas the potassium phosphate buffers at pH 7.4 and pH 8.0 simulate the conditions in the human blood and small intestine, respectively.
(§2) 4 mg of each test compound was diluted in either HCl solution or phosphate buffer (0.1 M) to give a solution of 1 mg/ml. Regarding the acidic testing with hydrochloric acid, 2 ml of aqueous test compound solutions were then added to 2 ml of 0.64 M HCl, yielding a final HCl concentration of 0.32 M (pH 0.5). Since all compounds tested, represent «free bases», a minimal amount of 100-200 microliters of dimethylsulfoxide (DMSO) has been added to avoid aggregation effects during testing. […] Concentrations of parent compound were analyzed at various timepoints using LC-MS. […]

human SERT = target: T1, human SERT (Homo sapiens, UniProt P31645); experiment: Uptake inhibition assay, SERT; type: cell-based
T1 construct: expressed in transfected cells
Experimental: (§3) Human embryonic kidney (HEK) 293 cells stably expressing human DAT, NET or SERT were maintained in humidified atmosphere (37° C., 5% CO2) in Dulbecco's Modified Eagle Medium (DMEM), supplemented with 10% heat-inactivated fetal calf serum (FCS), streptomycin (100 μg×100 mL^−1) and penicillin (100 U×100 mL^−1). Geneticin (50 μg×mL^−1) was used as selection antibiotic.
(§4) One day before the experiment, HEK293 cells expressing the respective transporters (DAT, NET or SERT) were seeded onto poly-D-lysine coated 96 well plates at a density of 30,000 cells per well in a final volume of 200 μL. For uptake experiments, the cell culture medium was replaced with […] Krebs-HEPES buffer (KHB; 25 mM HEPES, 120 mM NaCl, 5 mM KCl, 1.2 mM CaCl2, 1.2 mM MgSO4, and 5 mM D-glucose, pH 7.3). Then, the buffer was replaced with various concentrations of test compounds for 5 minutes; subsequent to that, 0.1 μM [^3H]5-HT (SERT), 0.1 μM [^3H]dopamine (DAT), or 0.05 μM [^3H]MPP^+ (NET) in KHB was added to yield a total volume of 50 μL in the well. For determination of non-specific uptake, paroxetine was used in case of SERT (3 μM), vanoxerine (also known as GBR12909) for DAT and NET (50 μM).
(§5) Uptake was terminated after 60 s (SERT) or 180 s (DAT, NET) by washing the cells with 200 μL ice-cold KHB. Subsequently, the cells were lysed with 200 μL Ultima Gold™ XR liquid scintillation cocktail, and the amount of tritium in the cells was measured with a Wallac 1450 MicroBeta® TriLux liquid scintillation counter. Monoamine uptake data were fitted by nonlinear regression, Vmax and Km values were calculated from Michaelis Menten's least-squares fit with GraphPad Prism (Prism 9.0.2, GraphPad Software, San Diego, CA, USA).
(§6) RT054 and RT056 were tested in both uptake inhibition and release assays, and the corresponding prodrug AM176 was tested in uptake inhibition assays. AM176 was tested either as the undecomposed prodrug or after treatment with 0.5% HCl at 37° C. for 24 hours in order to simulate digestion of the prodrug by gastric acid inside the body after peroral administration.

human DAT = target: T2, human DAT (Homo sapiens, UniProt Q01959); experiment: Uptake inhibition assay, DAT; type: cell-based
T2 construct: expressed in transfected cells
Experimental: as §3, §4, §5, §6

human NET = target: T3, human NET (Homo sapiens, UniProt P23975); experiment: Uptake inhibition assay, NET; type: cell-based
T3 construct: expressed in transfected cells
Experimental: as §3, §4, §5, §6

[2] = patients; cited from earlier work
[3] = Stability study in phosphate buffers pH 7.4 and pH 8.0; type: physicochemical; settings: phosphate buffer pH 7.4/pH 8.0, 37° C.
Experimental: as §1, §2

[4] = cited from earlier work
[5] = HEK293 cells stably expressing SERT, [3H]5-HT
[6] = HEK293 cells stably expressing DAT, [3H]dopamine
[7] = HEK293 cells stably expressing NET, [3H]MPP+

T3 sequence (P23975 whole entry): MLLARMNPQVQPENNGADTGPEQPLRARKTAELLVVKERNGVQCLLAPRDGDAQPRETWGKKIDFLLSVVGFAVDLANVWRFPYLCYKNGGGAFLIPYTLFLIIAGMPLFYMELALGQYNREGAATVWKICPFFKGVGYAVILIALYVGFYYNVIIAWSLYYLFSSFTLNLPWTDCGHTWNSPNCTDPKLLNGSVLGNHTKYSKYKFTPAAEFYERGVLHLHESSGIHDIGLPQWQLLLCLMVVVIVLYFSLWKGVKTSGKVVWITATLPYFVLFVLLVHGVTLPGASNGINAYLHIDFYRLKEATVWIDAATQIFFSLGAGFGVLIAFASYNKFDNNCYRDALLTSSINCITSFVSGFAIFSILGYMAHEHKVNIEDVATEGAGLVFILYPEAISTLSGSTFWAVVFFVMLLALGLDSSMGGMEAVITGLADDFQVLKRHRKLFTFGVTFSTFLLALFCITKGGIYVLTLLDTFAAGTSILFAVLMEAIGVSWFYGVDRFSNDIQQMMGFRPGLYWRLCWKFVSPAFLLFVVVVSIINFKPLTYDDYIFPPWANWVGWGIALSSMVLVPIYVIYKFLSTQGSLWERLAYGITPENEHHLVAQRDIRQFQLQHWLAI
T1 sequence (P31645 whole entry): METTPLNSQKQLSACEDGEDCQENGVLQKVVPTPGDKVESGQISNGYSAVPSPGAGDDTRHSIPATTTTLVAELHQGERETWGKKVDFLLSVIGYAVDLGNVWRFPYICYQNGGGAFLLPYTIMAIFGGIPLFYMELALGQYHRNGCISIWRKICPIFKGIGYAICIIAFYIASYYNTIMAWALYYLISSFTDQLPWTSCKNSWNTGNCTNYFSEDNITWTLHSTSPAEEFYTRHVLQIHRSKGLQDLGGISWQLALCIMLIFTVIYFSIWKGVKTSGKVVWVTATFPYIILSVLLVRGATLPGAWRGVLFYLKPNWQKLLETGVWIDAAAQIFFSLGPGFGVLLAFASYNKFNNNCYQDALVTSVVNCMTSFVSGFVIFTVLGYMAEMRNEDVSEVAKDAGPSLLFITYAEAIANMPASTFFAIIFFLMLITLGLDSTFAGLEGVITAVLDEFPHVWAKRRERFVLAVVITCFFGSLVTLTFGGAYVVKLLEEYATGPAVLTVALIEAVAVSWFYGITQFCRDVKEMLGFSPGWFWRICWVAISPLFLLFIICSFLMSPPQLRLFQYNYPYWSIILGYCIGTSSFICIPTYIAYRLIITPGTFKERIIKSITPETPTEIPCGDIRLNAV
T2 sequence (Q01959 whole entry): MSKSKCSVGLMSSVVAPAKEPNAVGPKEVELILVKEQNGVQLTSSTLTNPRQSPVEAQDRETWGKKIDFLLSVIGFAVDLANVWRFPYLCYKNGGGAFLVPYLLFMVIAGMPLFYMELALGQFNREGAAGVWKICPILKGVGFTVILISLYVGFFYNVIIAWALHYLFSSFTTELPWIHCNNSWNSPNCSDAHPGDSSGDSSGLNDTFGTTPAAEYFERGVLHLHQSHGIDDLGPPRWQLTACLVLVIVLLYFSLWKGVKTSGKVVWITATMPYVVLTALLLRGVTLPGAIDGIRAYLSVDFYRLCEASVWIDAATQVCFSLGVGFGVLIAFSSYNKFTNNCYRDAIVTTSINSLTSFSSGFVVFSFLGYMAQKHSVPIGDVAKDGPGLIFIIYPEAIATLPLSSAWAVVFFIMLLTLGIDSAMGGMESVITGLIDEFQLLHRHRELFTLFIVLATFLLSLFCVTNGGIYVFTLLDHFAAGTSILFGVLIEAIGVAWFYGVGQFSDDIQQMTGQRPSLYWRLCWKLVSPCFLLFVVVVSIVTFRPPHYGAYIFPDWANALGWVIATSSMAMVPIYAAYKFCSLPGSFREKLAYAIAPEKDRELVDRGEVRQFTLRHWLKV

COc1cc(CC/N=C(\C)c2ccccc2O)cc(OC)c1OC
Degradation in 1% HCl to the corresponding drug [1]: more retarded degradation behavior

CC(Cc1ccc2c(c1)OCS2)N(C)C(=O)OC(C)(C)C (centres unmarked) [AM176, tert-butyl (1-benzo[d][1,3]oxathiole-6-yl)propan-2-yl(methyl)carbamate]
IC50 (human SERT; HCl-treated (0.5% HCl at 37° C. for 24 hours), HEK293 cells expressing SERT): 18.3 µM
Interaction with SERT in uptake inhibition assay (in words) (human SERT; after pre-treatment with HCl): inhibits substrate-uptake via all monoamine transporters in a competitive manner
Interaction with SERT in uptake inhibition assay (in words) (human SERT; without pre-treatment with HCl): no interaction
IC50 (human DAT; HCl-treated (0.5% HCl at 37° C. for 24 hours), HEK293 cells expressing DAT): 3.4 µM
Interaction with DAT in uptake inhibition assay (in words) (human DAT; after pre-treatment with HCl): inhibits substrate-uptake via all monoamine transporters in a competitive manner
Interaction with DAT in uptake inhibition assay (in words) (human DAT; without pre-treatment with HCl): no interaction
IC50 (human NET; HCl-treated (0.5% HCl at 37° C. for 24 hours), HEK293 cells expressing NET): 9.2 µM
Interaction with NET in uptake inhibition assay (in words) (human NET; after pre-treatment with HCl): inhibits substrate-uptake via all monoamine transporters in a competitive manner
Interaction with NET in uptake inhibition assay (in words) (human NET; without pre-treatment with HCl): no interaction

COc1cc(CCN)cc(OC)c1OC [Mescaline, mescaline]
oral dose to cause the desired psychedelic state [2]: over 200 mg

COc1ccc(OC)c(CCNC(=O)OC(C)(C)C)c1 [Preparative Example 7, tert.-butyl-(2,5-Dimethoxyphenethyl)carbamate]
Degradation at neutral and basic conditions [3]: complete stability

COc1cc(CCNC(=O)OC(C)(C)C)c(OC)cc1C [Preparative Example 18, t-butyl-(2,5-Dimethoxy-4-methylphenethyl)carbamate]
Degradation at neutral and basic conditions [3]: complete stability

CC(N)Cc1ccc2c(c1)OCS2 (centres unmarked) [RT054, Benzoxathiol-6-yl-propan-2-amine, reference compound]
IC50 (human SERT; [5]): 3.6 µM
IC50 (human DAT; [6]): 1.3 µM
IC50 (human NET; [7]): 0.8 µM

CNC(C)Cc1ccc2c(c1)OCS2 (centres unmarked) [RT056, Benzoxathiol-6-yl-N-methyl-propan-2-amine]
IC50 (human SERT; [5]): 4.5 µM
IC50 (human DAT; [6]): 0.9 µM
IC50 (human NET; [7]): 1.8 µM

NCCc1ccccc1 [phenethylamine (PEA), phenethylamine]
half-life after oral consumption [4]: approximately 10 minutes
